In patent US20210403606A1, “METHOD FOR SEPARATING AND PURIFYING POLYSACCHARIDES FROM GANODERMA SPORES” (ZHONGKE HEALTH INDUSTRY GROUP JIANGSU PHARMACEUTICAL CO., …, priority 2018, published 2021):

Legend:
transplanted tumor Heps = test: Inhibitory effects on the transplanted tumor Heps in mice by tail vein injection; type: in vivo, ICR mice
Description: (§1) 1.2. Animals: ICR mice, 18-22 g, half males and half females, provided by the Animal Laboratory of China Pharmaceutical University. The animals were fed with pellet feed in an air-conditioned room at a temperature of 18-24° C., and a relative humidity of 70%.
3.1. Inhibitory effects of No. 1, No. 2, and No. 3 on the transplanted tumor Heps in mice by tail vein injection
3.1.1. Route of administration: No. 1, No. 2, and No. 3 are administrated by tail vein injection (iv).
(§2) 3.1.2. Schedule of administration: the mice are inoculated with solid-type Heps tumors according to protocols of transplanted tumor research, and 24 hours after inoculation, the medicines are intravenously administered once every other day for a total of 4 doses. On the day after stopping administration, the mice are sacrificed and dissected.
3.1.3. Dose setting: There are 6 groups in total, namely:
3.1.4. Volume of administration: 0.4 ml/20 g
(§3) 3.1.5. Test method: 60 mice of the foregoing specification were inoculated with solid-type Heps tumors according to protocols of the transplanted tumor research. The mice were weighed 24 hours after inoculation, and randomly divided into 6 groups, each with 10 mice, having half males and half females. The blank control group and the CTX group were respectively used as a negative control group and a positive control group. 24 hours after inoculation, the medicines were intravenously administered once every other day for a total of 4 doses. The mice were weighed on the day after stopping administration. The tumor-bearing mice were sacrificed, and the tumor masses were separated and weighed, and the obtained data was statistically processed (t-test).

transplanted tumor S180 = test: Inhibitory effects on the transplanted tumor S180 in mice by tail vein injection; type: in vivo, ICR mice
Description: as §1
3.2. Inhibitory effects of No. 1, No. 2, and No. 3 on the transplanted tumor S180 in mice by tail vein injection
3.2.1. Route of administration: No. 1, No. 2, and No. 3 are administrated by tail vein injection (iv).
as §2, with “3.2.2.” for “3.1.2.”, “5180” for “Heps”
3.2.3. Dose setting: There are 6 groups in total, namely:
3.2.4. Volume of administration: 0.4 ml/20 g
as §3, with “3.2.5.” for “3.1.5.”, “5180” for “Heps”

O=P1(N(CCCl)CCCl)NCCCO1 (centres unmarked) [CTX, Cyclophosphamide] was tested, and the Tumor inhibition rate (transplanted tumor Heps; Heps, 30 mg/kg once every other day, 4 doses) was 74.20%, the Tumor weight (transplanted tumor Heps; Heps, 30 mg/kg once every other day, 4 doses, X ± SD, n = 10) was 0.42 ± 0.19 g and the “Weight After administration” value (transplanted tumor Heps; Heps-bearing mice, 30 mg/kg once every other day, 4 doses, X ± SD, n = 10) was 23.2 ± 2.74. The “Weight Before administration” value (transplanted tumor Heps; Heps-bearing mice, 30 mg/kg, baseline body weight, X ± SD, n = 10) was 20.0 ± 1.36, the Tumor inhibition rate (transplanted tumor S180; S180, 30 mg/kg once every other day, 4 doses) was 65.71% and the Tumor weight (transplanted tumor S180; S180, 30 mg/kg once every other day, 4 doses, X ± SD, n = 10) was 0.55 ± 0.18 g. For the same compound, the “Weight After administration” value (transplanted tumor S180; S180-bearing mice, 30 mg/kg once every other day, 4 doses, X ± SD, n = 10) was 23.2 ± 2.74 and the “Weight Before administration” value (transplanted tumor S180; S180-bearing mice, 30 mg/kg, baseline body weight, X ± SD, n = 10) was 20.1 ± 1.28.
